Reference: US6537995B2, “Heterocyclic carboxamides” (Pfizer Inc., priority 1998, dated 2003)

Structure (SMILES)	melting point
CN1CCN(c2ccccc2-c2ccc(C(=O)NCc3ccc(Cl)cc3)[nH]2)CC1.Cl	80 °C (dec.)
CN1CCN(c2ccccc2-c2ccc(C(=O)NCc3ccc(Cl)cc3)o2)CC1.Cl.O (hydrate or solvate)	110 °C (dec.)
CN1CCN(c2ccccc2-c2ccc(C(=O)NCc3ccccc3)s2)CC1.Cl.O.O (hydrate or solvate)	145 °C (dec.)
CN1CCN(c2ccccc2-c2ccc(C(=O)NCc3ccc(F)cc3)s2)CC1.Cl.O (hydrate or solvate)	187 to 188 °C

Continued, values first:

melting point	Structure (SMILES)
149 °C (dec.)	CN1CCN(c2ccccc2-c2ccc(C(=O)Nc3ccc(Cl)cc3)s2)CC1.Cl
140 °C (dec.)	COc1ccc(CNC(=O)c2ccc(-c3ccccc3N3CCN(C)CC3)s2)cc1.Cl
175 to 176.5 °C	CN1CCN(c2ccc(F)cc2-c2ccc(C(=O)NCc3ccc(Cl)cc3)s2)CC1.O (hydrate or solvate)
145 °C (dec.)	CN1CCN(c2ccccc2-c2ccc(C(=O)Nc3ccc(Cl)cc3)o2)CC1.Cl.O (hydrate or solvate)
256 to 257 °C	CN1CCN(c2ccccc2-c2ccc(C(=O)NCc3ccc(Cl)cc3)s2)CC1.Cl.O (hydrate or solvate)
